Molecules are shown by their SMILES. Structures can show the parent of a compound that is named as a salt.

The EC50 is the concentration that produces a half-maximal response. As a reminder, the CC50 is the concentration that lowers cell viability or growth by half. Higher therefore signals lower toxicity to the cells. For orientation: solubility (kinetic) means solubility judged after dilution from a stock solution rather than from solid.

The test system of data set [1] is Enterovirus A Coxsackievirus A16 (CVA16) isolate 49360. Description: microbe, parasite or virus in culture. It counts as cell-based. Conditions: RD, 120 h, read-out: EC50 (M ± SD), CVA16.
Data set [2] deals with Enterovirus B Echovirus 13 (E13) isolate 57088. Description: microbe, parasite or virus in culture. Type of data set: cell-based. Conditions: RD, 120 h, read-out: EC50 (M ± SD), E13.
Data set [3] concerns Enterovirus C vaccine strain Sabin 1 of poliovirus type 1 (PV1). Description: microbe, parasite or virus in culture. Type of data set: cell-based. Conditions: RD, 120 h, read-out: EC50 (M ± SD), PV1.
The test system of a further data set is SARS-CoV-2 strain PIK35. Put plainly: microbe, parasite or virus in culture. Type of data set: cell-based. To be noted: Severe acute respiratory syndrome coronavirus 2, Vero, read-out: EC50 (M ± SD), SARS-CoV-2.
Another data set concerns HIV-1 strain NL4-3. Put plainly: microbe, parasite or virus in culture. Type of data set: cell-based. To be noted: Human immunodeficiency virus 1, NL43, MT4, 168 h, read-out: EC50 (M ± SD), HIV.
Data set [4] is described as follows: Cell viability assay for RD cells. Conditions: human.
A short description of data set [5]: Cell viability assay for MT-4 cells. To be noted: human.
A short description of a further data set: physchem. Conditions: aqueous with cosolvent or surfactant or cyclodextrin.
A short description of data set [6]: Cell viability assay (resazurin) for Vero cells. To be noted: African green monkey, confluent Vero cell monolayers. On the technique in general: Alamar Blue is a resazurin reagent that responds to reducing activity.
A further data set concerns CHIKV strain Nic. Description: microbe, parasite or virus in culture. To be noted: Chikungunya virus, Vero, read-out: EC50 (M ± SD), CHIKV. It counts as cell-based.

Take `CCCCOC(=O)c1c(Cl)c(Cl)c(Cl)c(Cl)c1-c1c2cc(I)c(=O)c(I)c-2oc2c(I)c(O)c(I)cc12` [2a, Rose Bengal N-Butyl Ester, Monosodium Salt]: the concentration giving a half-maximal response (EC50) was greater than 100 µM in data set [1]; greater than 100 µM in [2]; greater than 100 µM in [3]; 0.05 ± 0.02 µM with SARS-CoV-2 strain PIK35; 6.3 ± 2.6 µM in the data set with HIV-1 strain NL4-3; 0.004 ± 0.002 µM in the data set with CHIKV strain Nic. Moreover, the values for the CC50 at 5 days in data set [4] and in [6] were 21.3 ± 5.2 µM and 8 ± 1 µM, respectively. The CC50 at 7 days in [5] stood at 15 ± 4 µM. In addition, the solubility (kinetic) in the data set “physchem” came to 3.1 µM.

`CCCCCCOC(=O)c1c(Cl)c(Cl)c(Cl)c(Cl)c1-c1c2cc(I)c(=O)c(I)c-2oc2c(I)c(O)c(I)cc12` [2b, Rose Bengal N-Hexyl Ester, Monosodium Salt]: the EC50 in data set [1] was greater than 100 µM; in [2] it was greater than 100 µM; in data set [3], greater than 100 µM; in the data set on SARS-CoV-2 strain PIK35, 0.4 ± 0.3 µM; in the data set with HIV-1 strain NL4-3 it was 4.4 ± 1.8 µM; in the data set on CHIKV strain Nic it was 0.0007 ± 0.0003 µM. In addition, the values for the cytotoxic concentration (CC50) at 5 days in data set [4] and in data set [6] were 21.3 ± 5.2 µM and 60 ± 15 µM, respectively. In data set [5], this molecule yielded a 50% cytotoxic concentration (CC50) at 7 days of 15 ± 4 µM. The kinetic solubility in the data set “physchem” was 1 µM.

As to `CCCCCCCCOC(=O)c1c(Cl)c(Cl)c(Cl)c(Cl)c1-c1c2cc(I)c(=O)c(I)c-2oc2c(I)c(O)c(I)cc12` [2c, Rose Bengal N-Octyl Ester, Monosodium Salt], the concentration for a half-maximal effect (EC50) in data set [1] is greater than 100 µM; in [2] it was greater than 100 µM; in [3], greater than 100 µM; in the data set on SARS-CoV-2 strain PIK35 it was 5.3 ± 1.3 µM; in the data set with HIV-1 strain NL4-3, 8.8 ± 3.7 µM; in the data set with CHIKV strain Nic, 0.0002 ± 0.0001 µM. For the same molecule, the CC50 at 5 days in [4] worked out at 21.3 ± 5.2 µM; in [6], 53 ± 25 µM. The molecule further had a CC50 at 7 days in data set [5] of 42 ± 10 µM.

On to `CCCCCCCCCCOC(=O)c1c(Cl)c(Cl)c(Cl)c(Cl)c1-c1c2cc(I)c(=O)c(I)c-2oc2c(I)c(O)c(I)cc12` [2d, Rose Bengal N-Decyl Ester, Monosodium Salt], for which the EC50 in [1] is greater than 100 µM; in [2], greater than 100 µM; in data set [3], greater than 100 µM; in the data set on SARS-CoV-2 strain PIK35, 6.6 ± 3.1 µM; in the data set on HIV-1 strain NL4-3, 8.8 ± 2.6 µM; in the data set with CHIKV strain Nic, 0.002 ± 0.001 µM. Moreover, the CC50 at 5 days is 10.7 ± 2.6 µM in [4] and 60 ± 15 µM in [6]. Half-maximal cytotoxicity in data set [5] (CC50 at 7 days) was put at 42 ± 10 µM.

Take `CCCCCCCCCCCCOC(=O)c1c(Cl)c(Cl)c(Cl)c(Cl)c1-c1c2cc(I)c(=O)c(I)c-2oc2c(I)c(O)c(I)cc12` [2e, Rose Bengal N-Dodecyl Ester, Monosodium Salt]: the EC50 in data set [1] was greater than 100 µM; in data set [2] it was greater than 100 µM; in data set [3], greater than 100 µM; with SARS-CoV-2 strain PIK35, 43 ± 10 µM; in the data set with HIV-1 strain NL4-3, greater than 50 µM; with CHIKV strain Nic, 0.038 ± 0.03 µM. In addition, the CC50 at 5 days in [4] was 21.3 ± 5.2 µM; in [6], greater than 100 µM. Besides, the CC50 at 7 days in data set [5] was greater than 50 µM.

As for `Cc1cn([C@H]2C[C@H](N=[N+]=[N-])[C@@H](CO)O2)c(=O)[nH]c1=O` [AZT, azidothymidine, reference compound], in the data set with HIV-1 strain NL4-3, the EC50 was 0.01 µM. The molecule further registered a CC50 at 7 days in data set [5] greater than 5 µM.

Take `O=c1nc(NO)ccn1[C@@H]1O[C@H](CO)[C@@H](O)[C@H]1O` [NHC, N^4-hydroxycytidine, reference compound]: the EC50 in data set [1] amounted to 50 ± 18 µM; in data set [2], 17 ± 8 µM; in [3], 25 ± 10 µM; in the data set with SARS-CoV-2 strain PIK35, 4.7 ± 2.9 µM; in the data set on CHIKV strain Nic it was 23.6 ± 10.2 µM. For the same molecule, the CC50 at 5 days in data set [4] and in data set [6] was greater than 100 µM throughout.

As to `O=C(O)c1c(Cl)c(Cl)c(Cl)c(Cl)c1-c1c2cc(I)c(=O)c(I)c-2oc2c(I)c(O)c(I)cc12` [compound 1, Rose Bengal, disodium salt, reference compound], the concentration giving a half-maximal response (EC50) in [1] was greater than 100 µM; in [2], greater than 100 µM; in data set [3], greater than 100 µM; with SARS-CoV-2 strain PIK35, 0.5 ± 0.2 µM; in the data set on HIV-1 strain NL4-3, 18 ± 7 µM; in the data set with CHIKV strain Nic, 0.11 ± 0.05 µM. Moreover, the CC50 at 5 days in [4] and in data set [6] was 43 ± 10 µM in each case. This molecule also came in with a half-maximal cytotoxic concentration (CC50) at 7 days in data set [5] greater than 50 µM. This molecule also registered a solubility (kinetic) in the data set “physchem” greater than 50 µM.

Source of the values: paper PMC9687286, “Hydrophobic Rose Bengal Derivatives Exhibit Submicromolar-to-Subnanomolar Activity against Enveloped Viruses” (Biomolecules, 2022).
